Laboratory results as given in ChEMBL document CHEMBL3885861, “Open TG-GATES”.

Organism: Rattus norvegicus
Assay: Open TG-GATES - Regimen: Daily Repeat
Assay type: toxicity, organism-based, Sprague-Dawley
Set-up: regimen Daily Repeat, gender Male, age 6 weeks
Settings: in vivo, po, 300 mg/kg, […], route gavage, dose level High; for KIDNEY_L / KIDNEY_R / KIDNEY_TOTAL: tissue Kidney; for LIVER: tissue Liver; for A/G / ALP / ALT / AST / BUN / CRE / Ca / Cl / DBIL / GLC / IP / K / LDH / Na / PL / RALB / TBIL / TC / TG / TP / gamma-GTP: tissue Plasma

C[C@]12CCC(=O)C=C1CC[C@@H]1[C@@H]2CC[C@@]2(C)[C@H]1CC[C@]2(C)O [METHYLTESTOSTERONE]
Lym (tissue Blood, time 28 day): 77.8%
MCH (tissue Blood, time 28 day): 19.3 pg
MCHC (tissue Blood, time 28 day): 35.7%
MCV (tissue Blood, time 28 day): 54.1 fL
Mono (tissue Blood, time 28 day): 3.2%
Neu (tissue Blood, time 28 day): 17.4%
PT (tissue Blood, time 28 day): 13.6 s
Plat (tissue Blood, time 28 day): 111.9 x10_4/uL
RBC (tissue Blood, time 28 day): 819 x10_4/ul
Ret (tissue Blood, time 28 day): 2.6%
WBC (tissue Blood, time 28 day): 81.2 x10_2/uL
KIDNEY_L (time 7 day): 1.2 g
KIDNEY_R (time 7 day): 1.2 g
KIDNEY_TOTAL (time 7 day): 2.4 g
KIDNEY_L (time 14 day): 1.4 g
KIDNEY_R (time 14 day): 1.4 g
KIDNEY_TOTAL (time 14 day): 2.8 g
KIDNEY_L (time 28 day): 1.8 g
KIDNEY_R (time 28 day): 1.8 g
KIDNEY_TOTAL (time 28 day): 3.7 g
LIVER (time 7 day): 13.5 g
LIVER (time 14 day): 15.3 g
LIVER (time 28 day): 18.6 g
A/G (time 7 day): 0.9
ALP (time 7 day): 1693.8 IU/L
ALT (time 7 day): 44.4 IU/L
AST (time 7 day): 63.4 IU/L
BUN (time 7 day): 13.8 mg/dL
CRE (time 7 day): 0.2 mg/dL
Ca (time 7 day): 10.9 mg/dL
Cl (time 7 day): 105 meq/L
DBIL (time 7 day): 0.028 mg/dL
GLC (time 7 day): 182.4 mg/dL
IP (time 7 day): 7.6 mg/dL
K (time 7 day): 3.8 meq/L
LDH (time 7 day): 89.4 IU/L
Na (time 7 day): 143.4 meq/L
PL (time 7 day): 117.2 mg/dL
RALB (time 7 day): 2.9 g/dL
TBIL (time 7 day): 0.03 mg/dL
TC (time 7 day): 38.6 mg/dL
TG (time 7 day): 228.8 mg/dL
TP (time 7 day): 6.2 g/dL
gamma-GTP (time 7 day): 1 IU/L
A/G (time 14 day): 0.8
ALP (time 14 day): 1180 IU/L
ALT (time 14 day): 62 IU/L
AST (time 14 day): 69.8 IU/L
BUN (time 14 day): 13 mg/dL
CRE (time 14 day): 0.2 mg/dL
Ca (time 14 day): 10.4 mg/dL
Cl (time 14 day): 105 meq/L
DBIL (time 14 day): 0.022 mg/dL
GLC (time 14 day): 172.6 mg/dL
IP (time 14 day): 7.8 mg/dL
K (time 14 day): 3.9 meq/L
LDH (time 14 day): 128.8 IU/L
Na (time 14 day): 143 meq/L
PL (time 14 day): 139.2 mg/dL
RALB (time 14 day): 2.8 g/dL
TBIL (time 14 day): 0.03 mg/dL
TC (time 14 day): 44 mg/dL
TG (time 14 day): 191.2 mg/dL
TP (time 14 day): 6.2 g/dL
gamma-GTP (time 14 day): 1.8 IU/L
A/G (time 28 day): 0.8
ALP (time 28 day): 1072 IU/L
ALT (time 28 day): 49.8 IU/L
AST (time 28 day): 60.2 IU/L
BUN (time 28 day): 12.4 mg/dL
CRE (time 28 day): 0.2 mg/dL
Ca (time 28 day): 10.9 mg/dL
Cl (time 28 day): 101.6 meq/L
DBIL (time 28 day): 0.026 mg/dL
GLC (time 28 day): 172 mg/dL
IP (time 28 day): 6.5 mg/dL
K (time 28 day): 3.4 meq/L
LDH (time 28 day): 100 IU/L
Na (time 28 day): 144.2 meq/L
PL (time 28 day): 118.6 mg/dL
RALB (time 28 day): 2.9 g/dL
TBIL (time 28 day): 0.032 mg/dL
TC (time 28 day): 36.2 mg/dL
TG (time 28 day): 202.2 mg/dL
TP (time 28 day): 6.3 g/dL
gamma-GTP (time 28 day): 2.6 IU/L
